Series [1] deals with T1, Retinoic acid receptor beta (Homo sapiens) (UniProt P10826).
T1 sequence (whole entry): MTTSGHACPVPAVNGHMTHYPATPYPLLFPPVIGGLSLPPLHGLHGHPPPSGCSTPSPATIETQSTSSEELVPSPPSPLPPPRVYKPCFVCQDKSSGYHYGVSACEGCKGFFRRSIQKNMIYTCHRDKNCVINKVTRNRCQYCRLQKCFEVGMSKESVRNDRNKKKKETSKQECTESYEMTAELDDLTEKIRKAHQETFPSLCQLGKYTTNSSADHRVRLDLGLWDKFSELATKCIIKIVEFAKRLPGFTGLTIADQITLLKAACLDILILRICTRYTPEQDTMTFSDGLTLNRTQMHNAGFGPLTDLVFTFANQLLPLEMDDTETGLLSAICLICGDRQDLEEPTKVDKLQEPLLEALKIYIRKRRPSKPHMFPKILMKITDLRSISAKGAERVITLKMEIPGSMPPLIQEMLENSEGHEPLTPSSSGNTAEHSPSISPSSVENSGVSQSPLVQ
The experiment in a line: Transcriptional activation of human RARbeta at 0.1 uM by luciferase reporter gene assay relative to control. A general note: A reporter such as luciferase makes a cellular process visible.

A short description of series [2]: Induction of apoptosis in retinoid-resistant p53 null human HL60R cells assessed as DNA fragmentation at 1 uM after 24 hrs by acridine orange staining method. In kind it is functional.
Series [3] addresses T2, Retinoic acid receptor gamma (Homo sapiens) (UniProt P13631).
T2 sequence (whole entry): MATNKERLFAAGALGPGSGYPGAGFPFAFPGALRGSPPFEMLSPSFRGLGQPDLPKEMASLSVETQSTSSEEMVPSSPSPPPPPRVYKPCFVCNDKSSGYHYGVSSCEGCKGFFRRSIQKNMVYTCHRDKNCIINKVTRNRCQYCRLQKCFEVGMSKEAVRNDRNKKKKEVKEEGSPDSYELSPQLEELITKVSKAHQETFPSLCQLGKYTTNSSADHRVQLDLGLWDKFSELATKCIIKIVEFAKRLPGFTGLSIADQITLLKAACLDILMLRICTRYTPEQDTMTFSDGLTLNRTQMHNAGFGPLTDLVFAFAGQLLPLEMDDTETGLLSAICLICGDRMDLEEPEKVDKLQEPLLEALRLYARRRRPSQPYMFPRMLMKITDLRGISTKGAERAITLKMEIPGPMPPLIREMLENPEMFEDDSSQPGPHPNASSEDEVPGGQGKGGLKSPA
The series is described as follows: Transcriptional activation of human RARgamma at 0.1 uM by luciferase reporter gene assay relative to control.

Series [4] has as its system OVCAR-3. The series is described as follows: Antiproliferative activity against human OVCAR3 cell. In kind it is functional, cell-based.
Series [5] is described as follows: Induction of apoptosis in retinoid-resistant p53 null human HL60R cells assessed as DNA fragmentation at 0.1 uM after 24 hrs by acridine orange staining method. In kind it is functional.
Series [6] addresses T2, Retinoic acid receptor gamma (Homo sapiens). The experiment in a line: Transcriptional activation of human RARgamma at 1 uM by (TREpal)2-tk-CAT reporter gene assay.
For series [7], the target named is T1, Retinoic acid receptor beta (Homo sapiens). The series is described as follows: Transcriptional activation of human RARbeta at 1 uM by (TREpal)2-tk-CAT reporter gene assay.
The target in series [8] is T3, Retinoic acid receptor alpha (Homo sapiens) (UniProt P10276).
T3 sequence (whole entry): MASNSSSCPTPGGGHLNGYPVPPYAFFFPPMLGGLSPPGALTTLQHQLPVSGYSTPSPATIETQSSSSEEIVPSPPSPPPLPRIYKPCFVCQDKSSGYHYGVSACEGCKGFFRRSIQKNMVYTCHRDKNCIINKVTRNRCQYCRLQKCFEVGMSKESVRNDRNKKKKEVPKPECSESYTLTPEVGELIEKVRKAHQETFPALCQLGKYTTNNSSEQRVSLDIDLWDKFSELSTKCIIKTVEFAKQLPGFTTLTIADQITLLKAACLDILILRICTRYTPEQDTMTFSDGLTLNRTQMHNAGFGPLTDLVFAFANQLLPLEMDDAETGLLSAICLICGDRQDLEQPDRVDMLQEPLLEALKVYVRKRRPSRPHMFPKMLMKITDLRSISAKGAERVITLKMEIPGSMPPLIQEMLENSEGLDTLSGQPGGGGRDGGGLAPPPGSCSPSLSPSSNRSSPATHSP
The experiment in a line: Transcriptional activation of human RARalpha at 1 uM by (TREpal)2-tk-CAT reporter gene assay.

The target of series [9] is T3, Retinoic acid receptor alpha (Homo sapiens). The series is described as follows: Transcriptional activation of human RARalpha at 0.1 uM by luciferase reporter gene assay relative to control.
The subject of series [10] is A549. The experiment in a line: Induction of apoptosis in human A549 cells assessed as decrease in ATP level after 72 hrs by luminescence assay. Type of series: functional, cell-based.
Series [11] relates to HT-29. The experiment in a line: Induction of apoptosis in human HT-29 cells assessed as decrease in ATP level at 10 uM after 72 hrs by luminescence assay. Type of series: functional.
The subject of series [12] is PC-3. The series is described as follows: Induction of apoptosis in human PC3 cells assessed as decrease in ATP level at 10 uM after 72 hrs by luminescence assay. In kind it is functional, cell-based.
Series [13] relates to PC-3. The series is described as follows: Induction of apoptosis in human PC3 cells assessed as decrease in ATP level at 5 uM after 72 hrs by luminescence assay. In kind it is functional. More on the design: scale not given: the % may be the effect or the level left.
In series [14] the test system is Mus musculus. The experiment in a line: Toxicity in ICR-SCIDS mouse harboring xenograft assessed as exhibiting symptoms of dehydration at 20 mg/kg, iv qd administered alternate days for a total of 15 doses measured on day 9. In kind it is organism-based. Also on record: dose 20 mg/kg, route intravenous. Conditions: in vivo.
The test system of series [15] is Mus musculus. The series is described as follows: Toxicity in ICR-SCIDS mouse assessed as decrease in body weight at 20 mg/kg, iv qd administered at a 25% increment in dose each day for 7 days measured on day 8 relative to control. More on the design: dose 20 mg/kg, route intravenous; scale not given: the % may be the effect or the level left. Conditions: in vivo, 168 h. In kind it is organism-based.

The test system of series [16] is A549. The experiment in a line: Induction of apoptosis in human A549 cells assessed as decrease in ATP level at 5 uM after 72 hrs by luminescence assay. Type of series: functional. Also on record: scale not given: the % may be the effect or the level left.
Series [17] deals with Mus musculus. The experiment in a line: Toxicity in ICR-SCIDS mouse harboring xenograft assessed as decreased physical activity at 20 mg/kg, iv qd administered alternate days for a total of 15 doses measured on day 9. More on the design: dose 20 mg/kg, route intravenous. Type of series: organism-based. Conditions: in vivo.
Series [18] has as its system KG-1. The experiment in a line: Induction of apoptosis in human KG1 cells expressing p53 gene assessed as DNA fragmentation at 1 uM after 48 hrs by acridine orange staining method. In kind it is functional.
Series [19] deals with Mus musculus. The experiment in a line: Toxicity in ICR-SCIDS mouse harboring xenograft assessed as occurrence of scruffy coat at 20 mg/kg, iv qd administered alternate days for a total of 15 doses measured on day 9. In kind it is organism-based. Also on record: dose 20 mg/kg, route intravenous. Conditions: in vivo.
The test system of series [20] is KG-1. The series is described as follows: Growth inhibition in human KG1 cells expressing p53 gene at 1 uM after 48 hrs by MTT assay. Type of series: functional. Conditions: KG-1, 48 h, read-out: GI.
Series [21] deals with Mus musculus. The experiment in a line: Toxicity in ICR-SCIDS mouse harboring xenograft assessed as body weight loss at 20 mg/kg, iv qd administered alternate days for a total of 15 doses measured on day 9. Type of series: organism-based. Also on record: dose 20 mg/kg, route intravenous. Conditions: in vivo.
Series [22] can be described thus: Aqueous solubility of the compound in PBS at pH 7.2 by UV spectrophotometric analysis. Type of series: physicochemical. Conditions: PBS, read-out: solubility.
The subject of series [23] is Mus musculus. The experiment in a line: Toxicity in ICR-SCIDS mouse harboring xenograft assessed as occurrence of diarrhea at 20 mg/kg, iv qd administered alternate days for a total of 15 doses measured on day 9. Type of series: organism-based. Also on record: dose 20 mg/kg, route intravenous. Conditions: in vivo.
Series [24] deals with A549. The experiment in a line: Induction of apoptosis in human A549 cells assessed as decrease in ATP level at 10 uM after 72 hrs by luminescence assay. Type of series: functional, cell-based.
The subject of series [25] is Mus musculus. The experiment in a line: Toxicity in ICR-SCIDS mouse assessed as increase in body weight at 20 mg/kg, iv qd administered at a 25% increment in dose each day for 7 days measured on day 4. Type of series: organism-based. Also on record: dose 20 mg/kg, route intravenous. Conditions: in vivo, 168 h.
Series [26] has as its system KG-1. The series is described as follows: Growth inhibition in human KG1 cells expressing p53 gene at 5 uM after 48 hrs by MTT assay. Type of series: functional. Conditions: KG-1, 48 h, read-out: GI. On the technique in general: Tetrazolium dyes change colour on reduction, which living cells bring about.
Series [27] relates to Mus musculus. The experiment in a line: Toxicity in ICR-SCIDS mouse assessed as decrease in body weight at 20 mg/kg, iv qd administered at a 25% increment in dose each day for 7 days measured on day 7 relative to body weight on day 1. In kind it is organism-based. Also on record: dose 20 mg/kg, route intravenous; scale not given: the % may be the effect or the level left. Conditions: in vivo, 168 h.

The nature of series [28]: Induction of apoptosis in mouse MMTV-Wnt-1 cells assessed as cell viability after 72 hrs by DAPI staining based cell counting. In kind it is functional.
Series [29] relates to Mus musculus. The experiment in a line: Toxicity in ICR-SCIDS mouse assessed as increase in body weight at 20 mg/kg, iv qd administered at a 25% increment in dose each day for 7 days measured on day 1. Type of series: organism-based. Also on record: dose 20 mg/kg, route intravenous. Conditions: in vivo, 168 h.
Series [30] has as its system KG-1. The experiment in a line: Induction of apoptosis in human KG1 cells assessed as DNA fragmentation at 5 uM after 48 hrs by acridine orange staining method. Type of series: functional.
Series [31] deals with HT-29. The series is described as follows: Induction of apoptosis in human HT-29 cells assessed as decrease in ATP level at 5 uM after 72 hrs by luminescence assay. Type of series: functional. Also on record: scale not given: the % may be the effect or the level left.
The test system of series [32] is HT-29. The series is described as follows: Induction of apoptosis in human HT-29 cells assessed as decrease in ATP level after 72 hrs by luminescence assay. In kind it is functional, cell-based.
The subject of series [33] is PC-3. The experiment in a line: Induction of apoptosis in human PC3 cells assessed as decrease in ATP level after 72 hrs by luminescence assay. In kind it is functional, cell-based.

≈ marks a conversion by molar mass, not a printed value. Calls of active or inactive are those of the source. The calls are words filed in the database; no cut-off is given here.

The IC50 is the concentration that gives 50% inhibition. `O=C(O)c1ccc2cc(-c3ccc(O)c(C45CC6CC(CC(C6)C4)C5)c3)ccc2c1` [O-DEMETHYLATED ADAPALENE]: the fold change (FC) in series [1] worked out at 20; in series [3] it was 50; in series [9] it was 10. The Activity in [2] was 98%; in [5], 73%; in series [6], 88%; in series [7], 78%; in series [8] it was 21%. For the same compound, in series [4], the IC50 turned out to be 130 nM.

What is called solubility is the dissolved amount per volume that the medium holds. `O=C(O)/C=C/c1cnc(-c2ccc(O)c(C34CC5CC(CC(C5)C3)C4)c2)nc1`: the Activity result is “Dose-dependent effect” in series [10]; 35% in series [13]; “Non-toxic” in series [14]; 100% in series [15]; 35% in series [16]; “Non-toxic” in series [17]. Besides, the Activity in [18] is 40%; in series [19] it was “Non-toxic”; in series [21] it was “Non-toxic”; in series [23], “Non-toxic”; in series [25] it was 5.7%; in [27], 100.9%. For the same compound, the Activity is 5.7% in [29]; 50% in series [30]; 15% in series [31]; “Dose-dependent effect” in [32]; “Dose-dependent effect” in [33]. In addition, the outcome in series [11] was inactive. Further, the result in [12] and in series [24] was Active. Also, the inhibition of growth at 1 µM in [20] is 100%. In addition, the solubility in series [22] was 0.44 µM (≈ 0.166 µg/mL). The inhibition of growth at 5 µM in series [26] is 100%. In addition, the IC50 in series [28] was 60 nM.

For the origin of these results see ChEMBL document CHEMBL1811878, “Heteroatom-substituted analogues of orphan nuclear receptor small heterodimer partner ligand and apoptosis inducer (E)-4-[3-(1-Adamantyl)-4-hydroxyphenyl]-3-chlorocinnamic acid” (J Med Chem, 2011).
